According to article PMC2915760 (Bioorganic & medicinal chemistry, 2010):
pKd: −log10 of the molar value.

Target: T1, Lyp-CCPGCC (lymphoid-specific protein tyrosine phosphatase, PTPN22, engineered insertion mutant) (Homo sapiens, UniProt Q9Y2R2, INS199CCPGCC)
T1 sequence (Q9Y2R2 with tags, fused parts or gaps INS199CCPGCC): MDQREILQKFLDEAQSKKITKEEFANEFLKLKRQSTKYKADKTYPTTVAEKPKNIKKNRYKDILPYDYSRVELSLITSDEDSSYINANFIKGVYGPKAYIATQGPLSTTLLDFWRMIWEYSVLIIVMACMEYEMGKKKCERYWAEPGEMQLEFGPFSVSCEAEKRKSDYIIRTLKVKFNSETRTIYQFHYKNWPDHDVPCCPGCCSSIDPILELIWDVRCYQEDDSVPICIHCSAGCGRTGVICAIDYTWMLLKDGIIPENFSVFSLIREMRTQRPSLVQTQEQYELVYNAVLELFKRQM
Assay: FlAsH fluorescence titration with purified Lyp-CCPGCC
Format: binding

O=C1OC2(c3ccccc31)c1ccc(O)c([As]3SCCS3)c1Oc1c2ccc(O)c1[As]1SCCS1 [FlAsH]
pKd: 7.17
